Source: US10894036B2, “Use of marizomib for the treatment of central nervous system (CNS) cancers” (Celgene International II Sàrl, priority 2016, dated 2021)
Where two headings read alike, the source gives them in different places.

Columns and labels:
recurrent glioma = conditions: cited from earlier work; for 6 mo OS / 6 mo PFS / 9 mo OS / 9 mo PFS: BEV monotherapy
[1] = Phase 1b MRZ + TMZ (+RT) in newly diagnosed G4 MG: adverse events, DLT; format: in vivo, human
Description: This is a Phase 1b, open-label, 3+3, dose-escalation followed by dose-expansion study in patients with newly diagnosed G4 MG who have not previously received any local or systemic therapy for their G4 MG. The study will examine the effect of the addition of MRZ to standard of care treatment utilizing two study arms: Concomitant Treatment in which MRZ will be combined with TMZ+RT and Adjuvant Treatment in which MRZ will be combined with TMZ. The study will be conducted in two Stages. In Stage 1 (Dose-Escalation): 3 to 6 evaluable patients per MRZ dose cohort will be enrolled in each study arm. […] A total of approximately 48 patients will be enrolled in Stages 1 and 2 combined. Patients may not be enrolled in more than 1 MRZ dose cohort per arm.
Concomitant Treatment consists of a 6 week (42 day) treatment period, followed by a 4 (−1) week break from treatments. All patients will receive intravenous (IV) MRZ infusion on Days 1, 8, 15, 29, and 36 as a 10 minute infusion. IV hydration will be given prior to the infusion. Focal RT will be administered once daily, 5 days/week, for 30 doses over 6 weeks to a total dose of 60 Gy, starting on Day 1. TMZ will be administered once daily, 7 days/week, for 6 weeks, starting on Day 1, at a dose of 75 mg/m^2. Patients who complete Concomitant Treatment may continue on to Adjuvant Treatment.
All patients will receive IV MRZ infusion on Days 1, 8, and 15 as a 10 minute infusion, in 28-day cycles. IV hydration will be given prior to the infusion. TMZ will be administered daily for 5 consecutive days, starting on Day 1 of Cycle 1 (C1D1), at a dose of 150 mg/m^2. If tolerated in Cycle 1, the TMZ dose will be increased on Day 1 of Cycle 2 (C2D1) to a dose of 200 mg/m^2.

[2] = BELOB Trial, BEV monotherapy (Taal et al., 2014)
[3] = BELOB trial BEV monotherapy arm (Taal et al., 2014)
[4] = Heiland (Freiburg, Germany), All Pts
[5] = Heiland (Freiburg, Germany), Methylated
[6] = Heiland (Freiburg, Germany), Unmethylated MGMT promoter
[7] = Taal (BELOB), Unmethylated MGMT promoter
[8] = Wick (EORTC 26101 P2), Methylated
[9] = Wick (EORTC 26101 P2), Unmethylated MGMT promoter
[10] = N = 20, related to the labelled drug
[11] = N = 20, related to the labelled drug (MRZ+TMZ = related to both)
[12] = patient 301-A202, action taken None
[13] = patient 301-C202, action taken None

bevacizumab [reference compound]
6 Months PFS, all patients (recurrent glioma; [2]): 16%
6 Months PFS, uMGMT Promoter (recurrent glioma; [2]): 8%
6 mo PFS, All (recurrent glioma; [3]): 16%
6 mo PFS, uMGMT Promoter (recurrent glioma; [3]): 8%
6 mo OS (recurrent glioma; Field (CABARET), All Pts): 61%
6 mo PFS (recurrent glioma; Field (CABARET), All Pts): 18%
9 mo OS (recurrent glioma; Field (CABARET), All Pts): 39%
9 mo PFS (recurrent glioma; Field (CABARET), All Pts): 6%
6 mo Overall Survival, All Pts (recurrent glioma; Field (CABARET)): 61%
6 mo Progression Free Survival, All Pts (recurrent glioma; Field (CABARET)): 18%
9 mo Overall Survival, All Pts (recurrent glioma; Field (CABARET)): 39%
9 mo Progression Free Survival, All Pts (recurrent glioma; Field (CABARET)): 6%
12 Mo. Overall Survival, All Pts (recurrent glioma; Field (CABARET)): 24%
6 mo OS (recurrent glioma; [4]): 18%
9 mo OS (recurrent glioma; [4]): 30%
9 mo PFS (recurrent glioma; [4]): 0%
6 mo OS (recurrent glioma; [5]): 58%
6 mo PFS (recurrent glioma; [5]): 38%
9 mo OS (recurrent glioma; [5]): 40%
9 mo PFS (recurrent glioma; [5]): 22%
6 mo OS (recurrent glioma; [6]): 25%
6 mo PFS (recurrent glioma; [6]): 10%
9 mo PFS (recurrent glioma; [6]): 0%
6 mo Overall Survival, All Pts (recurrent glioma; Heiland (Freiburg, Germany)): 18%
6 mo Overall Survival, Methylated (recurrent glioma; Heiland (Freiburg, Germany)): 58%
6 mo Overall Survival, Unmethylated (recurrent glioma; Heiland (Freiburg, Germany)): 25%
6 mo Progression Free Survival, Methylated (recurrent glioma; Heiland (Freiburg, Germany)): 38%
6 mo Progression Free Survival, Unmethylated (recurrent glioma; Heiland (Freiburg, Germany)): 10%
9 mo Overall Survival, All Pts (recurrent glioma; Heiland (Freiburg, Germany)): 30%
9 mo Overall Survival, Methylated (recurrent glioma; Heiland (Freiburg, Germany)): 40%
9 mo Progression Free Survival, All Pts (recurrent glioma; Heiland (Freiburg, Germany)): 0%
9 mo Progression Free Survival, Methylated (recurrent glioma; Heiland (Freiburg, Germany)): 22%
9 mo Progression Free Survival, Unmethylated (recurrent glioma; Heiland (Freiburg, Germany)): 0%
12 Mo. Overall Survival, All Pts (recurrent glioma; Heiland (Freiburg, Germany)): 10%
12 Mo. Overall Survival, Methylated (recurrent glioma; Heiland (Freiburg, Germany)): 24%
12 Mo. Progression Free Survival, All Pts (recurrent glioma; Heiland (Freiburg, Germany)): 0%
12 Mo. Progression Free Survival, Methylated (recurrent glioma; Heiland (Freiburg, Germany)): 10%
12 Mo. Progression Free Survival, Unmethylated (recurrent glioma; Heiland (Freiburg, Germany)): 0%
6 mo OS (recurrent glioma; Taal (BELOB), All Pts): 62%
6 mo PFS (recurrent glioma; Taal (BELOB), All Pts): 16%
9 mo OS (recurrent glioma; Taal (BELOB), All Pts): 45%
9 mo PFS (recurrent glioma; Taal (BELOB), All Pts): 8%
6 mo OS (recurrent glioma; Taal (BELOB), Methylated): 83%
6 mo PFS (recurrent glioma; Taal (BELOB), Methylated): 33%
9 mo OS (recurrent glioma; Taal (BELOB), Methylated): 67%
9 mo PFS (recurrent glioma; Taal (BELOB), Methylated): 22%
6 mo OS (recurrent glioma; [7]): 50%
6 mo PFS (recurrent glioma; [7]): 8%
9 mo PFS (recurrent glioma; [7]): 0%
6 mo Overall Survival, All Pts (recurrent glioma; Taal (BELOB)): 62%
6 mo Overall Survival, Methylated (recurrent glioma; Taal (BELOB)): 83%
6 mo Overall Survival, Unmethylated (recurrent glioma; Taal (BELOB)): 50%
6 mo Progression Free Survival, All Pts (recurrent glioma; Taal (BELOB)): 16%
6 mo Progression Free Survival, Methylated (recurrent glioma; Taal (BELOB)): 33%
6 mo Progression Free Survival, Unmethylated (recurrent glioma; Taal (BELOB)): 8%
9 mo Overall Survival, All Pts (recurrent glioma; Taal (BELOB)): 45%
9 mo Overall Survival, Methylated (recurrent glioma; Taal (BELOB)): 67%
9 mo Progression Free Survival, Methylated (recurrent glioma; Taal (BELOB)): 22%
9 mo Progression Free Survival, Unmethylated (recurrent glioma; Taal (BELOB)): 0%
12 Mo. Overall Survival, All Pts (recurrent glioma; Taal (BELOB)): 26%
12 Mo. Overall Survival, Methylated (recurrent glioma; Taal (BELOB)): 56%
12 Mo. Overall Survival, Unmethylated (recurrent glioma; Taal (BELOB)): 8%
12 Mo. Progression Free Survival, Unmethylated (recurrent glioma; Taal (BELOB)): 0%
6 mo PFS (recurrent glioma; Wick (EORTC 26101 P2), All Pts): 14%
9 mo PFS (recurrent glioma; Wick (EORTC 26101 P2), All Pts): 9%
6 mo PFS (recurrent glioma; [8]): 25%
9 mo PFS (recurrent glioma; [8]): 9%
6 mo PFS (recurrent glioma; [9]): 10%
9 mo PFS (recurrent glioma; [9]): 10%
6 mo Progression Free Survival, All Pts (recurrent glioma; Wick (EORTC 26101 P2)): 14%
6 mo Progression Free Survival, Methylated (recurrent glioma; Wick (EORTC 26101 P2)): 25%
6 mo Progression Free Survival, Unmethylated (recurrent glioma; Wick (EORTC 26101 P2)): 10%
9 mo Progression Free Survival, All Pts (recurrent glioma; Wick (EORTC 26101 P2)): 9%
9 mo Progression Free Survival, Methylated (recurrent glioma; Wick (EORTC 26101 P2)): 9%
9 mo Progression Free Survival, Unmethylated (recurrent glioma; Wick (EORTC 26101 P2)): 10%
12 Mo. Progression Free Survival, All Pts (recurrent glioma; Wick (EORTC 26101 P2)): 8%
12 Mo. Progression Free Survival, Methylated (recurrent glioma; Wick (EORTC 26101 P2)): 9%
12 Mo. Progression Free Survival, Unmethylated (recurrent glioma; Wick (EORTC 26101 P2)): 10%
6-month progression-free survival (PFS) rate (recurrent glioma; recurrent G4 MG): ~43%
median overall survival (OS) (recurrent glioma; recurrent G4 MG): ~9 months

C[C@@]12OC(=O)[C@]1([C@@H](O)[C@@H]1C=CCCC1)NC(=O)[C@@H]2CCCl [marizomib]
Discontinued, reason Adverse Event ([1]; N = 20): 1 (5.0%)
Dose reduction, reason Adverse Event ([1]; N = 20): 1 (5.0%)
Number of Patients with drug Discontinued ([1]; N = 20): 1 (5.0%)
Number of Patients with ≥1 Dose Reduction ([1]; N = 20): 1 (5.0%)
patients with MRZ-related serious adverse events ([1]; N = 20): One
patients with fatigue Grade ≥3 ([1]; N = 20): Three
Abdominal pain, Grade ≥3 TEAE, drug related [1, 10]: 0 (0.0%)
Confusional state, treatment-related TEAE, number of patients [1, 10]: 3
Confusional state, treatment-related TEAE, percent of patients [1, 10]: (15.0%)
Constipation, treatment-related TEAE, number of patients [1, 10]: 1
Constipation, treatment-related TEAE, percent of patients [1, 10]: (5.0%)
Decreased appetite, treatment-related TEAE, number of patients [1, 10]: 4
Decreased appetite, treatment-related TEAE, percent of patients [1, 10]: (20.0%)
Dehydration, Grade ≥3 TEAE, drug related [1, 10]: 1 (5.0%)
Diarrhoea, treatment-related TEAE, number of patients [1, 10]: 2
Diarrhoea, treatment-related TEAE, percent of patients [1, 10]: (10.0%)
Dizziness, treatment-related TEAE, number of patients [1, 10]: 4
Dizziness, treatment-related TEAE, percent of patients [1, 10]: (20.0%)
Hallucination, Grade ≥3 TEAE, drug related [1, 10]: 1 (5.0%)
Hallucination, treatment-related TEAE, number of patients [1, 10]: 5
Hallucination, treatment-related TEAE, percent of patients [1, 10]: (25.0%)
Headache, Grade ≥3 TEAE, drug related [1, 10]: 0 (0.0%)
Headache, treatment-related TEAE, number of patients [1, 10]: 3
Headache, treatment-related TEAE, percent of patients [1, 10]: (15.0%)
Insomnia, Grade ≥3 TEAE, drug related [1, 10]: 0 (0.0%)
Muscular weakness, treatment-related TEAE, number of patients [1, 10]: 3
Muscular weakness, treatment-related TEAE, percent of patients [1, 10]: (15.0%)
Musculoskeletal pain, Grade ≥3 TEAE, drug related [1, 10]: 0 (0.0%)
Nausea, treatment-related TEAE, number of patients [1, 10]: 9
Nausea, treatment-related TEAE, percent of patients [1, 10]: (45.0%)
Ovarian cyst, Grade ≥3 TEAE, drug related [1, 10]: 0 (0.0%)
Pelvic infection, Grade ≥3 TEAE, drug related [1, 10]: 0 (0.0%)
Platelet count decreased, Grade ≥3 TEAE, drug related [1, 10]: 1 (5.0%)
Platelet count decreased, treatment-related TEAE, number of patients [1, 10]: 2
Platelet count decreased, treatment-related TEAE, percent of patients [1, 10]: (10.0%)
Rash maculo-papular, treatment-related TEAE, number of patients [1, 10]: 1
Rash maculo-papular, treatment-related TEAE, percent of patients [1, 10]: (5.0%)
Vomiting, Grade ≥3 TEAE, drug related [1, 10]: 1 (5.0%)
Vomiting, treatment-related TEAE, number of patients [1, 10]: 5
Vomiting, treatment-related TEAE, percent of patients [1, 10]: (25.0%)
Fatigue, Grade ≥3 TEAE, drug related [1, 11]: 3 (15.0%)
Fatigue, treatment-related TEAE, number of patients [1, 11]: 13
Fatigue, treatment-related TEAE, percent of patients [1, 11]: (65.0%)
Grade 2 SAEs (nausea, confusional state), MRZ-related ([1]; interim analysis, 20 patients): two
Grade 3 SAEs (fatigue, hallucination, vomiting), MRZ-related ([1]; interim analysis, 20 patients): three
tolerability ([1]; newly diagnosed G4 MG): well tolerated
SAE Nephrolithiasis, relationship to drug ([1]; patient 104-C302, action taken None): Not Suspected/
SAE Confusional state, relationship to drug [1, 12]: Suspected/
SAE Dehydration, relationship to drug [1, 12]: Not Suspected/
SAE Fatigue, relationship to drug [1, 12]: Suspected/
SAE Hallucination, relationship to drug [1, 12]: Suspected/
SAE Nausea, relationship to drug [1, 12]: Suspected/
SAE Vomiting, relationship to drug [1, 12]: Suspected/
SAE Ovarian cyst, relationship to drug ([1]; patient 301-C202, action taken Dose Delayed): Not Suspected/
SAE Convulsion, relationship to drug [1, 13]: Not Suspected/
SAE Pelvic infection, relationship to drug [1, 13]: Not Suspected/
